Source: PubChem BioAssay AID222 (DTP/NCI, 2004)
Values joined by “and” are separate entries in the source; they are usually repeats but may differ in a detail not shown here. Equal entries are not always repeated. Toxic doses and inconclusive results are not listed. How the source made its calls: active means survival T/C of 150% or more; inactive means T/C below 125% in these data.

Test system: C57BL/6 mice, intracerebral ependymoblastoma, median survival T/C
Assay: NCI In Vivo Anticancer Drug Screen. Data for tumor model Ependymoblastoma (intracerebral) in C57BL/6 mice
Details: endpoint: median survival time, higher = longer survival
Method: The antitumor activity of compounds was measured in mice bearing transplantable tumors. Survival or tumor size were measured and the results are expressed as the measurement made in the treated group (T) divided by the measurement made in the vehicle treated control group (C). The tumor model used in this assay is Ependymoblastoma (intracerebral) in C57BL/6 mice

[1] = dose: 0.12 mg/kg/injection, schedule: Q01DX005 (ip), vehicle: Klucel (hydroxypropylcellulose) (HPC)
[2] = dose: 0.25 mg/kg/injection, schedule: Q01DX005 (ip), vehicle: Klucel (hydroxypropylcellulose) (HPC)
[3] = dose: 2.0 mg/kg/injection, schedule: Q01DX001 (ip), vehicle: Klucel (hydroxypropylcellulose) (HPC)
[4] = dose: 4.0 mg/kg/injection, schedule: Q01DX001 (ip), vehicle: Klucel (hydroxypropylcellulose) (HPC)
[5] = dose: 8.0 mg/kg/injection, schedule: Q01DX001 (ip), vehicle: Klucel (hydroxypropylcellulose) (HPC)

Measured: T/C

O=CC(NC(=O)N(CCCl)N=O)C(O)C(O)C(O)CO (centres undefined)
inactive: [1] 95 % of control | dose: 0.12 mg/kg/injection, schedule: Q01DX005 (ip), vehicle: saline 96 % of control and 104 % of control | dose: 0.13 mg/kg/injection, schedule: Q01DX005 (ip), vehicle: Klucel (hydroxypropylcellulose) (HPC) 88 % of control | dose: 0.13 mg/kg/injection, schedule: Q01DX005 (ip), vehicle: saline 89 % of control and 105 % of control | [2] 96 % of control and 123 % of control | dose: 0.5 mg/kg/injection, schedule: Q01DX005 (ip), vehicle: Klucel (hydroxypropylcellulose) (HPC) 97 % of control and 99 % of control | dose: 1.0 mg/kg/injection, schedule: Q01DX001 (ip), vehicle: Klucel (hydroxypropylcellulose) (HPC) 96 % of control | [3] 100 % of control | [4] 97 % of control | [5] 96 % of control | dose: 16.0 mg/kg/injection, schedule: Q01DX001 (ip), vehicle: Klucel (hydroxypropylcellulose) (HPC) 114 % of control | dose: 32.0 mg/kg/injection, schedule: Q01DX005 (oral), vehicle: saline 108 % of control | dose: 64.0 mg/kg/injection, schedule: Q01DX001 (oral), vehicle: saline 89 % of control | dose: 64.0 mg/kg/injection, schedule: Q01DX005 (oral), vehicle: saline 89 % of control | dose: 128.0 mg/kg/injection, schedule: Q01DX001 (oral), vehicle: saline 98 % of control | dose: 256.0 mg/kg/injection, schedule: Q01DX001 (oral), vehicle: saline 99 % of control | dose: 512.0 mg/kg/injection, schedule: Q01DX001 (oral), vehicle: saline 95 % of control | dose: 1024.0 mg/kg/injection, schedule: Q01DX001 (oral), vehicle: saline 99 % of control

CC(=O)[C@]1(O)Cc2c(O)c3c(c(O)c2[C@@H](OC2CC(N)C(O)C(C)O2)C1)C(=O)c1c(O)cccc1C3=O (some centres undefined)
inactive: dose: 7.8 micrograms/kg/injection, schedule: Q01DX005 (ip), vehicle: suspension in saline 102 % of control | dose: 15.6 micrograms/kg/injection, schedule: Q01DX005 (ip), vehicle: suspension in saline 104 % of control | dose: 31.0 micrograms/kg/injection, schedule: Q01DX005 (ip), vehicle: suspension in saline 101 % of control | dose: 62.5 micrograms/kg/injection, schedule: Q01DX005 (ip), vehicle: suspension in saline 99 % of control | dose: 125.0 micrograms/kg/injection, schedule: Q01DX005 (ip), vehicle: suspension in saline 114 % of control

CCC1(O)CC2CN(CCc3c([nH]c4ccccc34)C(C(=O)OC)(c3cc4c(cc3OC)N(C)C3C(O)(C(=O)NCCO)C(O)C5(CC)C=CCN6CCC43C65)C2)C1 (centres undefined)
inactive: dose: 0.05 mg/kg/injection, schedule: Q01DX005 (ip), vehicle: saline 108 % of control | dose: 0.1 mg/kg/injection, schedule: Q01DX005 (ip), vehicle: saline 113 % of control | dose: 0.2 mg/kg/injection, schedule: Q01DX005 (ip), vehicle: saline 117 % of control | dose: 0.4 mg/kg/injection, schedule: Q01DX005 (ip), vehicle: saline 108 % of control | dose: 0.8 mg/kg/injection, schedule: Q01DX005 (ip), vehicle: saline 108 % of control

CCCCCCCCCCCCCC(=O)OC12CC(C)C3(O)C(C=C(CO)C(O)C4(O)C(=O)C(C)=CC43)C1C2(C)C (centres undefined)
inactive: dose: 0.13 mg/kg/injection, schedule: Q01DX005 (ip), vehicle: acetone 100 % of control | dose: 0.25 mg/kg/injection, schedule: Q01DX005 (ip), vehicle: acetone 97 % of control | dose: 0.5 mg/kg/injection, schedule: Q01DX005 (ip), vehicle: acetone 86 % of control

CCC(=O)NC1=C(N2CC2C)C(=O)C(NC(=O)CC)=C(N2CC2C)C1=O (centres undefined)
inactive: dose: 6.25 mg/kg/injection, schedule: Q01DX009 (ip), vehicle: Klucel (hydroxypropylcellulose) (HPC) 105 % of control

O=C(O)CCCc1ccc(N(CCCl)CCCl)cc1
inactive: [1] 115 % of control | [2] 110 % of control | dose: 1.0 mg/kg/injection, schedule: Q01DX005 (ip), vehicle: Klucel (hydroxypropylcellulose) (HPC) 100 % of control | [3] 100 % of control | dose: 2.0 mg/kg/injection, schedule: Q01DX005 (ip), vehicle: Klucel (hydroxypropylcellulose) (HPC) 100 % of control and 111 % of control and 120 % of control | [4] 106 % of control | dose: 4.0 mg/kg/injection, schedule: Q01DX005 (ip), vehicle: Klucel (hydroxypropylcellulose) (HPC) 107 % of control and 109 % of control and 122 % of control | [5] 105 % of control | dose: 8.0 mg/kg/injection, schedule: Q01DX005 (ip), vehicle: Klucel (hydroxypropylcellulose) (HPC) 109 % of control and 110 % of control and 122 % of control | dose: 16.0 mg/kg/injection, schedule: Q01DX005 (ip), vehicle: Klucel (hydroxypropylcellulose) (HPC) 96 % of control and 122 % of control

N=c1ccn2c(n1)OC1C(O)C(CO)OC12 (centres undefined)
inactive: dose: 100.0 mg/kg/injection, schedule: Q01DX001 (ip), vehicle: saline 118 % of control | dose: 100.0 mg/kg/injection, schedule: Q01DX005 (ip), vehicle: saline 106 % of control and 112 % of control | dose: 200.0 mg/kg/injection, schedule: Q01DX001 (ip), vehicle: saline 123 % of control | dose: 200.0 mg/kg/injection, schedule: Q01DX005 (ip), vehicle: saline 120 % of control and 122 % of control | dose: 400.0 mg/kg/injection, schedule: Q01DX001 (ip), vehicle: saline 111 % of control | dose: 400.0 mg/kg/injection, schedule: Q01DX005 (ip), vehicle: saline 122 % of control | dose: 800.0 mg/kg/injection, schedule: Q01DX001 (ip), vehicle: saline 116 % of control
